Reference: patent publication US12291515B2, “Pyrrolidine derivative and use thereof” (Rushi Biotech (Hangzhou) Co., Ltd, priority 2021, dated 2025)

How the values were obtained:
Format in all cases: cell-based
[1] = test system: Human esophageal cancer cell TE-1; assay: CCK-8 cell proliferation assay, TE-1; details: TE-1 cells, CCK-8, 24 hrs with drug, OD 450 nm
Experimental: (§1) The effect of samples on the proliferation of human tumor cells in vitro was determined by CCK-8 cell proliferation assay.
(§2) The cells were assayed through a method including the following steps:
(§3) 1) The cells were digested, counted, and prepared into a cell suspension in a corresponding culture medium (Table 1) (5×10^4 cells/ml for CFPAC-1 and RPMI 8226, and 3.5×10^4 cells/ml for rest cells). The cell suspension was added to each well of a 96-well plate in 100 μl well.
(§4) 2) Then the 96-well plate was incubated for 24 hrs in an incubator at 37° C. and 5% CO2.
(§5) 3) The drug was diluted with the culture medium to the required working concentration. 100 μl of the corresponding drug containing medium was added to each well. A negative control group (added with drug-free culture medium) was also set.
(§6) 4) Then the 96-well plate was incubated for 24 hrs in an incubator at 37° C. and 5% CO2.
(§7) 5) The 96-well plate was stained with CCK-8, and The OD value was determined at λ=450 nm.
(§8) a) 10 μl of CCK-8 was added to each well, and incubated in the incubator for another 2-3 hrs.
(§9) b) The content was mixed uniformly by shaking gently on a shaker for 10 min, and the bubbles in the 96-well plate were removed.
(§10) 6) The inhibition rate in each group was calculated.

[2] = test system: Human gastric cancer cell MKN45; assay: CCK-8 cell proliferation assay, MKN-45; details: MKN-45 cells, CCK-8, 24 hrs with drug, OD 450 nm
Experimental: as §1, §2, §3, §4, §5, §6, §7, §8, §9, §10

[3] = test system: Human hepatoma cell HepG2; assay: CCK-8 cell proliferation assay, HepG2; details: HepG2 cells, CCK-8, 24 hrs with drug, OD 450 nm
Experimental: as §1, §2, §3, §4, §5, §6, §7, §8, §9, §10

[4] = test system: Human multiple myeloma cell RPMI 8226; assay: CCK-8 cell proliferation assay, RPMI8226; details: RPMI8226 cells, CCK-8, 24 hrs with drug, OD 450 nm
Experimental: as §1, §2, §3, §4, §5, §6, §7, §8, §9, §10

[5] = test system: Human pancreatic cancer cell CFPAC-1; assay: CCK-8 cell proliferation assay, CFPAC-1; details: CFPAC-1 cells, CCK-8, 24 hrs with drug, OD 450 nm
Experimental: as §1, §2, §3, §4, §5, §6, §7, §8, §9, §10

[6] = test system: Human lung adenocarcinoma cell A549; assay: CCK-8 cell proliferation assay, A549; details: A549 cells, CCK-8, 24 hrs with drug, OD 450 nm
Experimental: as §1, §2, §3, §4, §5, §6, §7, §8, §9, §10

[7] = test system: Human colon cancer cell HCT-116; assay: CCK-8 cell proliferation assay, HCT116; details: HCT116 cells, CCK-8, 24 hrs with drug, OD 450 nm
Experimental: as §1, §2, §3, §4, §5, §6, §7, §8, §9, §10

| SMILES | IC50 [1] [nM] | IC50 [2] [nM] | IC50 [3] [nM] | IC50 [4] [nM] | IC50 [5] [nM] | IC50 [6] [nM] | IC50 [7] [nM] |
| --- | --- | --- | --- | --- | --- | --- | --- |
| O=C(NCCCCC[C@H]1CCN(C(=O)c2cccs2)C1)Nc1ccncc1 [BSS-TP039, (S)-1-(5-(1-(2-thienylformyl)pyrrolidin-3-yl)pentyl)-2-(4-pyridinyl)urea] | 73 | 47 | 60 | 38 | 25 | 46 | 71 |
| O=C(NCCCCC[C@@H]1CCN(C(=O)c2cccs2)C1)Nc1ccncc1 [BSS-TP040, (R)-1-(5-(1-(2-thienylformyl)pyrrolidin-3-yl)pentyl)-2-(4-pyridinyl)urea] | 65 | 31 | 49 | 24 | 29 | 43 | 52 |
| O=C(NCCCCCCC1CCN(C(=O)c2ccccc2)C1)Nc1ccncc1 (centres unmarked) [BSS-TP101, 1-(6-(1-(benzoyl)pyrrolidin-3-yl)hexyl)-2-(4-pyridinyl)urea] | 64 | 39 | 50 | 21 | 29 | 35 | 22 |
| COc1cccc(OC)c1C(=O)N1CCC(CCCCCCNC(=O)Nc2ccncc2)C1 (centres unmarked) [BSS-TP102, 1-(6-(1-(2,6-dimethoxybenzoyl)pyrrolidin-3-yl)hexyl)-2-(4-pyridinyl) urea] | 29 | 30 | 35 | 10 | 13 | 23 | 27 |
| O=C(NCCCCCCC1CCN(C(=O)c2cccs2)C1)Nc1ccncc1 (centres unmarked) [BSS-TP103, 1-(6-(1-(2-thienylformyl)pyrrolidin-3-yl)hexyl)-2-(4-pyridinyl)urea] | 50 | 36 | 43 | 15 | 31 | 28 | 88 |
| O=C(NCCCCCCC1CCN(C(=O)c2ccc[nH]2)C1)Nc1ccncc1 (centres unmarked) [BSS-TP104, 1-(6-(1-(2-pyrrolylformyl)pyrrolidin-3-yl)hexyl)-2-(4-pyridinyl)urea] | 62 | 46 | 75 | 29 | 33 | 33 | 57 |
| O=C(NCCCCCCC1CCN(C(=O)c2ccco2)C1)Nc1ccncc1 (centres unmarked) [BSS-TP105, 1-(6-(1-(furoyl)pyrrolidin-3-yl)hexyl)-2-(4-pyridinyl)urea] | 76 | 32 | 61 | 20 | 37 | 43 | 53 |
| O=C(NCCCCCCC1CCN(C(=O)C2CCCN2)C1)Nc1ccncc1 (centres unmarked) [BSS-TP106, 1-(6-(1-(2-pyrrolidinylformyl)pyrrolidin-3-yl)hexyl)-2-(4-pyridinyl)urea] | 97 | 58 | 119 | 47 | 46 | 68 | 66 |
| O=C(NCCCCCCC1CCN(C(=O)C2CCCO2)C1)Nc1ccncc1 (centres unmarked) [BSS-TP107, 1-(6-(1-(2-tetrahydrofurylformyl)pyrrolidin-3-yl)hexyl)-2-(4-pyridinyl)urea] | 82 | 53 | 137 | 51 | 58 | 55 | 76 |
| O=C(NCCCCCCC1CCN(C(=O)C2CCCS2)C1)Nc1ccncc1 (centres unmarked) [BSS-TP108, 1-(6-(1-(2-tetrahydrothienylformyl)pyrrolidin-3-yl)hexyl)-2-(4-pyridinyl)urea] | 73 | 49 | 92 | 32 | 41 | 49 | 59 |
| O=C(NCCCCCCC1CCN(C(=O)c2ccccc2)C1)Nc1cccnc1 (centres unmarked) [BSS-TP109, 1-(6-(1-(benzoyl)pyrrolidin-3-yl)hexyl)-2-(3-pyridinyl)urea] | 88 | 53 | 71 | 23 | 26 | 29 | 47 |
| O=C(NCCCCCCC1CCN(C(=O)c2cccs2)C1)Nc1cccnc1 (centres unmarked) [BSS-TP110, 1-(6-(1-(2-thienylformyl)pyrrolidin-3-yl)hexyl)-2-(3-pyridinyl)urea] | 109 | 75 | 116 | 56 | 52 | 44 | 73 |
| O=C(NCCCCCCC1CCN(C(=O)c2ccco2)C1)Nc1cccnc1 (centres unmarked) [BSS-TP111, 1-(6-(1-(furoyl)pyrrolidin-3-yl)hexyl)-2-(3-pyridinyl)urea] | 133 | 77 | 87 | 53 | 42 | 61 | 62 |
| O=C(NCCCCCCC1CCN(C(=O)c2ccc[nH]2)C1)Nc1cccnc1 (centres unmarked) [BSS-TP112, 1-(6-(1-(2-pyrrolylformyl)pyrrolidin-3-yl)hexyl)-2-(3-pyridinyl)urea] | 93 | 59 | 81 | 42 | 36 | 52 | 78 |
| O=C(NCCCCCCC1CCN(C(=O)c2ccccc2)C1)Nc1ccnc(F)c1 (centres unmarked) [BSS-TP113] | 77 | 42 | 83 | 38 | 38 | 33 | 41 |
| O=C(NCCCCCCC1CCN(C(=O)c2ccc[nH]2)C1)Nc1ccnc(F)c1 (centres unmarked) [BSS-TP114] | 76 | 51 | 72 | 39 | 33 | 49 | 85 |
| O=C(NCCCCCCC1CCN(C(=O)c2ccco2)C1)Nc1ccnc(F)c1 (centres unmarked) [BSS-TP115] | 88 | 40 | 79 | 46 | 39 | 51 | 68 |
| O=C(NCCCCCCC1CCN(C(=O)c2cccs2)C1)Nc1ccnc(F)c1 (centres unmarked) [BSS-TP116] | 69 | 79 | 81 | 31 | 47 | 39 | 83 |
| O=C(NCCCCCCC1CCN(C(=O)c2ccccc2)C1)Nc1cc(F)nc(F)c1 (centres unmarked) [BSS-TP117] | 47 | 45 | 49 | 36 | 37 | 58 | 53 |
| O=C(NCCCCCCC1CCN(C(=O)c2ccco2)C1)Nc1cc(F)nc(F)c1 (centres unmarked) [BSS-TP118] | 81 | 62 | 64 | 24 | 42 | 59 | 61 |
| O=C(NCCCCCCC1CCN(C(=O)c2cccs2)C1)Nc1cc(F)nc(F)c1 (centres unmarked) [BSS-TP119] | 87 | 61 | 83 | 43 | 38 | 72 | 50 |
| O=C(NCCCCCCC1CCN(C(=O)c2ccc[nH]2)C1)Nc1cc(F)nc(F)c1 (centres unmarked) [BSS-TP120] | 49 | 42 | 53 | 28 | 35 | 47 | 66 |
| O=C(NCCCCCCC1CCN(C(=O)c2cc3ccccc3[nH]2)C1)Nc1ccncc1 (centres unmarked) [BSS-TP121, 1-(6(1-(2-indolylformyl)pyrrolidin-3-yl)hexyl)-2-(4-pyridinyl)urea] | 74 | 32 | 72 | 52 | 51 | 69 | 83 |
| O=C(NCCCCCCC1CCN(C(=O)c2cc3ccccc3o2)C1)Nc1ccncc1 (centres unmarked) [BSS-TP122, 1-(6-(1-(2-benzofurylformyl)pyrrolidin-3-yl)hexyl)-2-(4-pyridinyl)urea] | 63 | 61 | 71 | 26 | 49 | 67 | 69 |
| O=C(NCCCCCCC1CCN(C(=O)c2cc3ccccc3[nH]2)C1)Nc1ccnc(F)c1 (centres unmarked) [BSS-TP123] | 65 | 69 | 59 | 32 | 59 | 63 | 58 |
| O=C(NCCCCCCC1CCN(C(=O)c2cc3ccccc3o2)C1)Nc1ccnc(F)c1 (centres unmarked) [BSS-TP124] | 82 | 64 | 63 | 39 | 42 | 56 | 73 |
